“And” between values parts separate entries of the source, which are not always exact repeats. Equal values may be shown once.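 Following 48 hours of exposure in 96-well plates, responses at five concentrations were used to interpolate endpoints linearly. GI50 marks 50% less growth. Definition used: TGI = concentration required for complete inhibition of growth.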
How the values were obtained:
Assay in all cases: inhibition of tumour cell growth, NCI panel, 48 h
NCI-H522 lung = tested on: NCI-H522 lung
M14 melanoma = tested on: M14 melanoma
HCT-15 colon = tested on: HCT-15 colon
MDA-MB-435 = tested on: MDA-MB-435
SF-268 CNS = tested on: SF-268 CNS
LOX IMVI melanoma = tested on: LOX IMVI melanoma
SNB-19 CNS = tested on: SNB-19 CNS
MCF7 breast = tested on: MCF7 breast
CCRF-CEM leukemia = tested on: CCRF-CEM leukemia
HOP-92 NSCLC = tested on: HOP-92 NSCLC

Row | Compound | GI50 (NCI-H522 lung) | TGI (M14 melanoma) | TGI (HCT-15 colon) [µM] | GI50 (MDA-MB-435) | TGI (MDA-MB-435) | TGI (SF-268 CNS) [µM] | TGI (LOX IMVI melanoma) | TGI (SNB-19 CNS) [µM] | GI50 (MCF7 breast) | TGI (MCF7 breast) [µM] | TGI (NCI-H522 lung) [µM] | GI50 (M14 melanoma) [µM] | GI50 (HCT-15 colon) [µM] | GI50 (SF-268 CNS) [µM] | GI50 (CCRF-CEM leukemia) [µM] | TGI (CCRF-CEM leukemia) [µM] | GI50 (HOP-92 NSCLC) [µM] | TGI (HOP-92 NSCLC) [µM] | GI50 (SNB-19 CNS) [µM] | GI50 (LOX IMVI melanoma) [µM]
1 | Cc1nc2c(-c3cnc(N)nc3)nc(N3CCOCC3)nc2n1C(C)C | 0.137 µM and 0.138 µM | 2.12 µM and 5.91 µM | > 100 | 0.182 µM and 0.113 µM | 1.32 µM and 1.16 µM | > 100 | 1.56 µM and 6.03 µM | > 100 | 0.0876 µM and 0.0298 µM | > 100 |  |  |  |  |  |  |  |  |  | 
2 | CC(C)=CC/C=C(/C)[C@H]1CC[C@]2(C)[C@@H]1CC[C@@H]1[C@@]3(C)CCCNC(C)(C)[C@@H]3CC[C@]12C | 1.98 µM | 13.8 µM | 3.56 | 1.83 µM | 3.49 µM | 16.7 |  | 11.6 | 2 µM | 3.92 | 4.48 | 3.46 | 1.89 | 3.82 | 2.84 | 11.3 | 1.5 | 3.58 | 3.39 | 
3 | CN(C)/C=N/c1nc2c(ncn2C2OC(CO)C(O)C2O)c(=O)[nH]1 (stereo not drawn) |  | > 100 µM | > 100 |  |  | > 100 |  | > 100 |  |  |  |  |  |  |  |  |  | > 100 |  | 
4 | COc1ccc2c3c([nH]c2c1[N+](=O)[O-])C(C)=NCC3 |  | > 100 µM | > 100 |  |  | 64.7 | > 100 µM | > 100 |  |  | > 100 |  |  |  |  | > 100 |  |  |  | 
5 | Cc1ccc(C)c(C2=C(c3cn(C)c4ccccc34)C(=O)NC2=O)c1 | > 25 µM | > 25 µM | > 25 | 24 µM | > 25 µM | > 25 | > 25 µM | > 25 | 6.81 µM | > 25 | > 25 | > 25 | 9.33 | > 25 | 5.42 | > 25 |  |  | > 25 | > 19.5
6 | Cn1c2c(c3ccccc31)C1CCCCCCC1C1C(=O)OC(=O)C21 (stereo not drawn) |  | > 100 µM | > 100 |  |  | > 100 | 51.2 µM | > 100 |  |  |  |  |  |  |  | 59 |  |  |  | 
7 | OC[C@H]1C[C@](O)(c2ccc(Cl)cc2)[C@@H](c2ccc(Cl)cc2)O1 | 26 µM |  | > 100 | 22.9 µM | 47.8 µM | > 100 | 34.8 µM | > 100 | 30 µM | 72.8 | 52.9 |  | 31.7 | 26.8 |  |  | 16.8 | 45.6 | 37.8 | 17.9
8 | COc1cnc2c(c1)C(=O)c1c-2n(CCCNC(C)C)c(=O)c2cc(Cl)ccc12 | 0.133 µM |  | 2.78 | 1.14 µM | 2.42 µM | 1.94 |  | 2.61 |  |  | 1.97 |  | 1.08 | 0.148 | 0.0419 | 1.06 | 1.05 | 2.44 | 0.439 | 
9 | CC1=NNC(=O)C2CCC(=O)N12 (stereo not drawn) |  | > 100 µM | > 100 |  |  | > 100 |  | > 100 |  |  | > 100 |  |  |  |  | > 100 |  |  |  | 
10 | COC(=O)c1cc2c(s1)C(=O)c1ccccc1-2 |  | > 100 µM | > 100 |  |  | > 100 | > 100 µM | > 100 |  |  | > 100 |  |  |  |  | > 100 |  | > 100 |  | 

Source: PubChem BioAssay (NCI)
